Results published in US8063035B2, “Triazolyl aminopyrimidine compounds” (Eli Lilly and Company, priority 2007, dated 2011).
Like-named read-outs stand apart in the source and are kept apart here.

Assays:
[1] = molecular target: T1, Plk1-Flag-His6 tag fusion enzyme (Homo sapiens, UniProt P53350); experiment: Plk1 Inhibition Assay; type: biochemical; conditions: absolute IC50, 5.0 μM ATP, GST-Cdc25c (1-206) substrate, 60 min; MSR 3.6
T1 construct: FLAG (C); His6 (C); made in house; host or cells: Sf9 insect cells (baculovirus, pFastBac), treated with okadaic acid before harvest; The substrate was made in E. coli BL21 (pGEX-2T)
T1 sequence (P53350 whole entry, the tested form may be a part): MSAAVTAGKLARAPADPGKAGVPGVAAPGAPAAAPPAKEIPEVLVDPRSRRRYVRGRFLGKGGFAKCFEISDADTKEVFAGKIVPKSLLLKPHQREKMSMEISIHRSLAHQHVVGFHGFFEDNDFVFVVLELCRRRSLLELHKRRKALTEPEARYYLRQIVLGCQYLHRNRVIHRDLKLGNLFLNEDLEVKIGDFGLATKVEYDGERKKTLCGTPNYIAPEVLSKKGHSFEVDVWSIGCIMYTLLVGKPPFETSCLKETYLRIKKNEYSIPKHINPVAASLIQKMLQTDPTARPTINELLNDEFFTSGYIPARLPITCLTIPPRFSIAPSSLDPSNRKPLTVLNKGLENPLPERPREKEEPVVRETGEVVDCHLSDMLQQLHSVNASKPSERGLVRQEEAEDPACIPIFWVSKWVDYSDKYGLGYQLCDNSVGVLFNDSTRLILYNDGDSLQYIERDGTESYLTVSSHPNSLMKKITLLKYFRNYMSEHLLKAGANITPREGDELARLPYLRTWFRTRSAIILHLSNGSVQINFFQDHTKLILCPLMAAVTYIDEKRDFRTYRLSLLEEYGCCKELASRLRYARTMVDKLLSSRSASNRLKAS
Description: Human Plk1 cDNA may be directly linked at one of its termini with a polynucleotide sequence expressing a His6 tag, such as the C-terminal FLAG-His6 tag, and inserted into an appropriate expression vector, such as a pFastBac™ vector (Invitrogen) and transfected into an appropriate system, such as baculovirus similar to what has been reported by Yue-Wei Qian, et al., Science, 282, 1701 (1998) for xPlkk1. If a viral expression system is used, then the virus (e.g., baculovirus bearing a Plk1-Flag-His6 tag polynucleotide construct) is infected into a culture of a suitable host cell, such as Sf9 cells. […]
Plk1 kinase reactions contain Plk1-Flag-His6 tag fusion enzyme (0.2 ng/μL) in a buffer containing 50 mM HEPES, pH 7.3, 1.0 mM dithiothreitol, 5.0 μM ATP, 10 mM MgCl2, 0.01% TRITON® X-100, 0.4 μCi ^33P-ATP, and […] GST-Cdc25c (1-206) peptide. […] Wells are dried before addition of 40 μL of MicroScint™20 (Packard) and then counted on a Wallac MICROBETA® Jet. The percentage inhibition values from the 10-point concentration response data are subsequently analyzed, for example, using ACTIVITY BASE™ software (IDBS), using a 4-parameter logistic equation. Absolute IC50 values are calculated from the resulting curve fit.

[2] = system: HeLa Cells; experiment: pHH3(S10), Mitotic Cells, and DNA Content Assays; type: cell-based; conditions: Homo sapiens, 23 hours exposure
Description: HeLa Cells are plated at 200 cells/well in 96 well […] BIOCOAT™ plates, and are incubated in MEM (Minimum Essential Medium) with 10% FBS (Fetal Bovine Serum) in 37° C., 5% CO2 for 24 hours. Cells are treated by adding compound (in 0.25% DMSO) to the medium, dosing at 10 points across the range 0.5 μM to 0.0098 μM. After 23 hours exposure to the compounds, cells are fixed, for example with the PREFER™ fixative for 30 min then are permeablized with 0.1% TRITON® X100 in phospate buffered saline (PBS) solution for 15 min. Cells are washed 3 times with PBS then digested with 50 μg/mL RNAse. Primary antibody, anti-phosphohistone H3 Serine 10, is added at 1:500 in PBS with 1% bovine serum albumin (BSA) to the cells over night at 4° C. After 3 PBS washes, cells are incubated with Alexa488 labeled secondary antibody for 1 hour at room temperature. Again they are washed 3 times with PBS, and then 15 μM propidium iodide is added for 30 min to stain nuclei. Fluorescence Plates are scanned with ACUMEN EXPLORER™ [Laser-scanning fluorescence microplate cytometer (comprising of 488 nm argon ion laser excitation and multiple photomultiplier tube detection), manufactured by TTP LABTECH LTD] to measure phosphohistone H3, DNA content and mitotic cells as measured by DNA condensation. Image analysis are based on cellular fluorescent signals for identifying cells in different subpopulations. pHH3(S10) positive cells are identified by mean intensity at 500-530 nm above the threshold. Total intensity at 655-705 nm from propidium iodide/DNA is used to identify individual cells (cells with DNA content from 2N to 4N) and subpopulations in cell cycle (2N cells, 4N cells). Peak intensity at 575-640 nm is used to identify DNA condensation that is used as the marker to identify mitotic cells among 4N cells. Assay outputs are percentage of each identified subpopulations, % pHH3, % 2N, % 4N, % mitotic and total cell number. The EC50 is determined by curve fitting to a four parameter logistic for each output using ACTIVITY BASE™.

[3] = system: HCT116 cells; experiment: Antiproliferative Assay; type: cell-based; conditions: Homo sapiens, HCT-116, 72 hours, Alamar Blue, n=2, MSR 3.1
Description: The effects of compounds on cell proliferation can be determined using cells and cell proliferation methods well-known in the art (Robert C. Squatrito et al., Gynecological Oncology, 58, 101-105, (1995)). For example, HCT116 cells, which may be obtained from the American Type Culture Collection, may be seeded at ˜2000 cells/well in 96-well plates and allowed to attach overnight in a humidified CO2 incubator at 37° C. Following the 20-24 hour incubation, half-log serially diluted compounds are added and the plates are returned to the incubator. After an appropriate length of exposure (e.g., 72 hours), cell proliferation is estimated using well-known methods. In one method, 10 μL of a tetrazolium salt, such as Alamar Blue™ is added to the cell plates.

[4] = in man; cited from earlier work
[5] = in man, phase II clinical trials; cited from earlier work
[6] = system: HCT116; conditions: HCT116 murine xenograft; cited from earlier work
[7] = system: A549; conditions: A549 murine xenograft; cited from earlier work
[8] = system: NCIH460; conditions: NCIH460 murine xenograft; cited from earlier work

Compound | IC50 [1] | EC50 ([2]; MSR 2.4, read-out: DNA content EC50) | EC50 ([2]; MSR 2.5, read-out: mitotic EC50) | EC50 ([2]; MSR 2.6, read-out: pHH3(s10) EC50) | IC50 [3] | clearance (CL) [4] | dose-limiting toxicity [5] | activity in preclinical model [6] | activity in preclinical model [7] | activity in preclinical model [8]
CC(N)c1ccc(F)cc1-c1cccc2cc(-c3nc(NCCn4ccnn4)ncc3F)sc12 (racemic) [Example 57, N-(2-(1H-1,2,3-Triazol-1-yl)ethyl)-4-(7-(2-(1-amino-ethyl)-5-fluorophenyl)-benzo[b]thiophen-2-yl)-5-fluoropyrimidin-2-amine] | 11 nM | 40 nM | 36 nM | 37 nM | 119 nM |  |  |  |  | 
CC[C@@H]1C(=O)N(C)c2cnc(Nc3ccc(C(=O)NC4CCN(C)CC4)cc3OC)nc2N1C1CCCC1 [BI-2536] |  |  |  |  |  | > 1000 mL/min | dose limited by myelosupression | demonstrated activity | demonstrated activity | demonstrated activity
